Calls of active or inactive are those of the source. The calls are words filed in the database; no cut-off is given here.
What was measured:
[1] = Neurotoxicity in ip dosed Swiss albino mouse assessed as mortality; assay type: toxicity, organism-based; conditions: in vivo
[2] = system: Mus musculus; test: Anticonvulsant activity in ip dosed Swiss albino mouse assessed as protection against PTZ-induced seizure compound administered 30 mins before challenge measured after 60 mins; assay type: functional
[3] = Neurotoxicity in ip dosed Swiss albino mouse measured after 30 mins by chimney test; assay type: toxicity, organism-based; conditions: in vivo
[4] = system: Mus musculus; test: Anticonvulsant activity in Swiss albino mouse assessed as protection against PTZ-induced clonic seizure at 300 mg/kg, ip administered 30 mins before challenge; assay type: functional; conditions: route intraperitoneal
[5] = system: Mus musculus; test: Anticonvulsant activity in Swiss albino mouse assessed as protection against maximal electroshock-induced seizure at 300 mg/kg, ip administered 30 mins before challenge; assay type: functional; conditions: route intraperitoneal
[6] = system: Mus musculus; test: Anticonvulsant activity in Swiss albino mouse assessed as protection against strychnine-induced seizure at 0.5 mmol/kg, ip administered 30 mins before challenge; assay type: functional, organism-based
[7] = system: Mus musculus; test: Anticonvulsant activity in Swiss albino mouse assessed as protection against picrotoxin-induced seizure at 0.5 mmol/kg, ip administered 30 mins before challenge; assay type: functional, organism-based
[8] = system: Mus musculus; test: Anticonvulsant activity in Swiss albino mouse assessed as protection against PTZ-induced seizure at 0.5 mmol/kg, ip administered 30 mins before challenge; assay type: functional
[9] = system: Mus musculus; test: Anticonvulsant activity in Swiss albino mouse assessed as protection against maximal electroshock-induced seizure at 0.5 mmol/kg, ip administered 30 mins before challenge; assay type: functional
[10] = species: Mus musculus; test: Protective index, ratio of TD50 for neurotoxicity to ED50 for anticonvulsant activity in Swiss albino mouse; assay type: functional
[11] = Therapeutic index, ratio of LD50 for mortality to ED50 for anticonvulsant activity in Swiss albino mouse; assay type: organism-based; conditions: in vivo, read-out: TI
[12] = system: Mus musculus; test: Anticonvulsant activity in Swiss albino mouse assessed as protection against maximal electroshock-induced seizure at 200 mg/kg, ip administered 30 mins before challenge; assay type: functional; conditions: route intraperitoneal
[13] = system: Mus musculus; test: Anticonvulsant activity in Swiss albino mouse assessed as protection against PTZ-induced clonic seizure at 200 mg/kg, ip administered 30 mins before challenge; assay type: functional; conditions: route intraperitoneal

## CCCC(CCC)C(=O)[O-].[Na+] [VALPROATE SODIUM]
[1]
  LD50: 500 mg/kg
[2]
  ED50: 300 mg/kg
[3]
  TD50 at 0.5 h: 450 mg/kg
[4]
  inhibition in vivo at 300 mg/kg: 100%
[5]
  inhibition in vivo at 300 mg/kg: 100%

## Cc1ccccc1-n1c(C)nc2c(OCC(=O)NCCO)cccc2c1=O
[6]
  inhibition: inactive
[7]
  inhibition: inactive
[8]
  inhibition in vivo at 500 µmol/kg: 50%
[9]
  inhibition in vivo at 500 µmol/kg: 0%

## CCOC(=O)NNC(=O)COc1cccc2c(=O)n(-c3ccccc3C)c(C)nc12
[10]
  PI: 2.61
[6]
  inhibition: inactive
[7]
  inhibition: inactive
[1]
  LD50: 418 mg/kg
[8]
  inhibition in vivo at 500 µmol/kg: 100%
[2]
  ED50: 160 mg/kg
[9]
  inhibition in vivo at 500 µmol/kg: 100%
[3]
  TD50 at 0.5 h: 246 mg/kg
[11]
  therapeutic index: 1.53

## COc1ccccc1/C=N\NC(=O)COc1cccc2c(=O)n(-c3ccccc3C)c(C)nc12
[6]
  inhibition: inactive
[7]
  inhibition: inactive
[8]
  inhibition in vivo at 500 µmol/kg: 33%
[9]
  inhibition in vivo at 500 µmol/kg: 0%

## CSC(=S)NNC(=O)COc1cccc2c(=O)n(-c3ccccc3C)c(C)nc12
[10]
  PI: 1.91
[6]
  inhibition: inactive
[7]
  inhibition: inactive
[1]
  LD50: 501 mg/kg
[8]
  inhibition in vivo at 500 µmol/kg: 100%
[2]
  ED50: 150 mg/kg
[9]
  inhibition in vivo at 500 µmol/kg: 100%
[3]
  TD50 at 0.5 h: 287 mg/kg
[11]
  therapeutic index: 3.34

## Cc1ccccc1-n1c(C)nc2c(OCC(=O)N/N=C\c3ccccc3)cccc2c1=O
[6]
  inhibition: inactive
[7]
  inhibition: inactive
[8]
  inhibition in vivo at 500 µmol/kg: 50%
[9]
  inhibition in vivo at 500 µmol/kg: 0%

## Cc1ccccc1-n1c(C)nc2c(OCC(=O)NNC(=O)NN)cccc2c1=O
[6]
  inhibition: inactive
[7]
  inhibition: inactive
[8]
  inhibition in vivo at 500 µmol/kg: 50%
[9]
  inhibition in vivo at 500 µmol/kg: 0%

## Cc1ccccc1-n1c(C)nc2c(OCC(=O)N/N=C\c3ccccc3F)cccc2c1=O
[6]
  inhibition: inactive
[7]
  inhibition: inactive
[8]
  inhibition in vivo at 500 µmol/kg: 66%
[9]
  inhibition in vivo at 500 µmol/kg: 50%

## Cc1ccccc1-n1c(C)nc2c(OCC(=O)NNC(=S)NN)cccc2c1=O
[6]
  inhibition: inactive
[7]
  inhibition: inactive
[8]
  inhibition in vivo at 500 µmol/kg: 66%
[9]
  inhibition in vivo at 500 µmol/kg: 33%

## Cc1ccccc1-n1c(C)nc2c(OCC(=O)NN)cccc2c1=O
[10]
  PI: 2.72
[6]
  inhibition: inactive
[7]
  inhibition: inactive
[1]
  LD50: 1000 mg/kg
[8]
  inhibition in vivo at 500 µmol/kg: 100%
[2]
  ED50: 98 mg/kg
[9]
  inhibition in vivo at 500 µmol/kg: 50%
[3]
  TD50 at 0.5 h: 267 mg/kg
[11]
  therapeutic index: 10.2

## Cc1ccccc1-n1c(C)nc2ccccc2c1=O [METHAQUALONE]
[10]
  PI: 2
[1]
  LD50: 500 mg/kg
[2]
  ED50: 200 mg/kg
[3]
  TD50 at 0.5 h: 400 mg/kg
[12]
  inhibition in vivo at 200 mg/kg: 100%
[13]
  inhibition in vivo at 200 mg/kg: 100%
[11]
  therapeutic index: 2.5

## Cc1ccccc1-n1c(C)nc2c(OCC(=O)NNC(N)=O)cccc2c1=O
[6]
  inhibition: inactive
[7]
  inhibition: inactive
[8]
  inhibition in vivo at 500 µmol/kg: 50%
[9]
  inhibition in vivo at 500 µmol/kg: 0%

From ChEMBL document CHEMBL1932921, “Synthesis and anticonvulsant evaluation of some new 2,3,8-trisubstituted-4(3H)-quinazoline derivatives” (Bioorg Med Chem Lett, 2012)
